Assay results published in PMC9804871, “Effect of Opicapone on Levodopa Pharmacokinetics in Patients with Fluctuating Parkinson's Disease” (Movement Disorders, 2022).
Entries after “also recorded” stand apart in the source; their conditions may differ.

What was measured:
[1] = 12-hour levodopa plasma pharmacokinetics; type: in vivo, human (patients with PD)
Procedure: The study design is illustrated in Figure 1.
Pharmacokinetic evaluation occurred over 12 hours with sampling every 30 minutes, except for the last sample following each LD dose in the opicapone plus four LD intake regimen, which was sampled at 1 hour. The main pharmacokinetics parameters assessed included maximum observed plasma concentration (Cmax), time to achieve peak plasma levels (tmax), minimum observed plasma concentration (Cmin), plasma elimination half‐life (t1/2), area under the curve (AUC), and fluctuation index (FI; as an expression of peak‐to‐trough fluctuation, Cmax, and Cmin, relative to average concentration [Cavg]). The pharmacokinetics of the LD metabolite 3‐O‐methyldopa (3‐OMD) was also evaluated.
Descriptive statistics were used to summarize the pharmacokinetics parameters for LD and 3‐OMD for each of the three regimens. […] No formal comparison was performed between opicapone regimens.

[2] = opicapone pivotal trials; average; cited from earlier work
[3] = opicapone 50 mg added to LD/CD 400/100 mg (both regimens) vs LD/CD 500/125 mg without opicapone

Cc1c(Cl)c(C)[n+]([O-])c(Cl)c1-c1noc(-c2cc(O)c(O)c([N+](=O)[O-])c2)n1 [opicapone]
effect on LD minimal (trough) concentrations (Cmin) [1, 3]: at least doubled; also recorded: twofold increase
effect on LD plasma half-life (t1/2) [1, 3]: at least doubled
impact on time to reach (tmax) maximum LD concentrations ([1]; opicapone 50 mg added to either LD/CD 400/100 mg regimen): no impact
impact on maximal LD concentrations (Cmax) ([1]; opicapone 50 mg added to either LD/CD 400/100 mg regimen vs five-intake LD/CD 500/125 mg without opicapone): no significant impact
reduction of off time relative to placebo [2]: 1 h
